The values below are quoted from earlier work in patent US20040132104A1, “Vitamin D assay” (priority 2003, published 2004).

This data set concerns the target T1, Vitamin D binding protein (Homo sapiens, UniProt P02774).
T1 sequence (P02774 17-474): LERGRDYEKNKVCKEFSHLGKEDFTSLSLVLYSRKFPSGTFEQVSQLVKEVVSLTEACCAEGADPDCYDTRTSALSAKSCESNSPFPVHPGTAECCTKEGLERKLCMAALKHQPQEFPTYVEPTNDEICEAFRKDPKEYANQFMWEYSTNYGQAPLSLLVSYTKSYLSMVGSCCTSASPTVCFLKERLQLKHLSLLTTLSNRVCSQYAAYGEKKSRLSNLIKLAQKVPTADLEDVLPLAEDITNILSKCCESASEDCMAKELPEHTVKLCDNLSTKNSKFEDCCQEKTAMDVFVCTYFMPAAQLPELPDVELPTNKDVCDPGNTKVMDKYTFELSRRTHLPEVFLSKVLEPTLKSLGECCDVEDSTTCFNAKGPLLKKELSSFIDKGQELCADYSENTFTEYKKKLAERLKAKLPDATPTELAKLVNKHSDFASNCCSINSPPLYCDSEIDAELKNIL
The following applies: Vitamin D binding protein affinity for 25-OH Vitamin D.

Turning to 25-hydroxy-vitamin D [25-OH Vitamin D], the affinity is 5e+08 M⁻¹.
